Laboratory results: patent US4206226A (priority 1978, dated 1980)
Several values for one entry are separate records, joined by “and”; a condition that tells them apart may be missing. Equal entries are not always repeated.

How the values were obtained:
L1210 cells = assay: In vitro growth inhibition of L1210 cells; type: cell-based, murine; details: growth inhibition by 50 percent
Excerpt: (§1) The ID50 refers to the concentration of test compound required to
(§2) inhibit the growth of either the L1210 or L1210/DDP (NSC119875) resistant

[1] = tested on: L1210/DDP (NSC119875) resistant cells; assay: In vitro growth inhibition of L1210/DDP (NSC119875 resistant) cells; type: cell-based, murine; details: growth inhibition by 50 percent
Excerpt: as §1, §2

P388 leukemia = assay: In vivo activity against P388 leukemia; set-up: species or system murine; details: Days 1,5,9,13, NSC-119875 6.7 mg/kg, NSC-271674 20.0 mg/kg; for Survival (Days), P388: control 13.3 days
Excerpt: (§3) Data are expressed as survival in days and as a percentage increase in […]

P388/DDP leukemia = assay: In vivo activity against P388/DDP leukemia with acquired resistance to NSC-119875; set-up: species or system murine; details: for % ILS, P388/DDP / Survival (Days), P388/DDP: Days 1,5,9,13, NSC-119875 6.7 mg/kg, NSC-271674 20.0 mg/kg; for Survival (Days), P388/DDP: control 11.0 days
Excerpt: P388/DDP refers to a tumor line with acquired resistance to NSC119875.
as §3

B16 melanoma = assay: Panel of mouse tumors: B16 melanoma, survival time assay; type: in vivo; details: ip tumor, D1-9 ip
Protocol: (§4) *Survival time (mean or median) assay
(§5) **Tumor weight inhibition assay.
(§6) Data are expressed as a percentage of the survival time in days or the
(§7) tumor weights in mg of the treated mice divided by the corresponding
(§8) values for the control mice. All testing was performed using both platinu
(§9) compounds in the same experiment. The criteria for activity are as
(§10) follows: confirmed activity (activity from two separate laboratories) of
(§11) % T/C of 150 or more for survival systems and 10% or less for tumor weigh
(§12) inhibition assays. Lower levels of activity such as a % T/C of 125 for
(§13) survival systems and 42% for tumor weight inhibition assays are considere
(§14) statistically significant.

L1210 = assay: Panel of mouse tumors: L1210, survival time assay; type: in vivo; details: ip tumor, D1-9 ip
Protocol: as §4, §6, §7, §8, §9, §10, §11, §12, §13, §14

Lewis lung = assay: Panel of mouse tumors: Lewis lung, survival time assay; type: in vivo; details: iv tumor, D1-9 ip
Protocol: as §4, §6, §7, §8, §9, §10, §11, §12, §13, §14

CD8Fl mammary = assay: Panel of mouse tumors: CD8Fl mammary, tumor weight inhibition assay; type: in vivo; details: sc tumor, Q7DX5 ip
Protocol: as §5, §6, §7, §8, §9, §10, §11, §12, §13, §14

Colon #38 = assay: Panel of mouse tumors: Colon #38, tumor weight inhibition assay; type: in vivo; details: sc tumor, D2,9 ip
Protocol: as §5, §6, §7, §8, §9, §10, §11, §12, §13, §14

[2] = Renal Toxicity Screening Protocol, toxicity compared to NSC-119875; type: in vivo; details: for Body Weight Loss / Clinical Chemistry - Blood Urea Nitrogen / Clinical Chemistry - Creatinine / Clinical Chemistry - Serum Glutamic Pyruvic Transaminase / Hematology - Hematocrit / Hematology - White Blood Cell / Histopathology - Gastrointestinal / Histopathology - Hematopoietic / Histopathology - Lymphatic / Histopathology - Renal: score relative to NSC119875; for TOTAL SCORE: sum of ten parameter scores
L1210 leukemia [3] = assay: L1210 leukemia in BDF1 mice, treatment (ip) on Day 1 only, % increase in life span; type: in vivo
Protocol: The compound in 1% NaHCO3 solution was tested against the L1210 leukemia in BDF1 mice [10^6 cells given to mice on Day 0, treatment (ip) on Day 1 only] in laboratory and the following % increases in life span (%ILS) were noted: […]

L1210 leukemia [4] = assay: Delayed (Day 3) treatment of L1210 leukemia, compound singly and in combination regimen; type: in vivo, BDF1 mice; details: for >60 day survivors: Day 3
Protocol: The compound in 1% NaHCO3 solution was tested against the L1210 leukemia in BDF1 mice [10^6 cells given to mice on Day 0, treatment (ip) on Day 1 only] in laboratory and the following % increases in life span (%ILS) were noted:
The compound singly and in combination regimen
When treatment was delayed until Day 3, 5 mg/kg gave 51% ILS, 42% ILS and 39% ILS in three experiments.

Approximate LD50 = type: in vivo; details: mice
L1210 leukemia [5] = assay: Second screener, L1210 leukemia, day 1, 5, 9 schedule; type: in vivo, mice; details: 6.25 mg/kg
Excerpt: The compound was submitted to the Drug Development Branch of the National Cancer Institute and assigned NSC Number 271674. It was screened against the L1210 leukemia on a day 1, 5, 9 schedule and the following results were obtained:

murine leukemia L1210 = assay: Antileukemic activity in mice against murine leukemia L1210 (general statement); type: in vivo
Excerpt: Some previous platinum chelate compounds show dosage limitation due to renal impairment but the free carboxyl of the present composition offers a possible route of oral […] and absorption by the stomach.

[6] = tested on: adenocarcinoma of the stomach, pancreas, and large bowel; details: combined FU and radiation vs radiation therapy alone, patients; cited from earlier work
L1210 leukemia [7] = assay: Combination chemotherapy of advanced L1210 leukemia, cure rate (greater than 60-day survival); type: in vivo, mice; details: at least 1000 mg/kg
Protocol: Compound Pt-307 was administered usually in a dosage regimen of 5-60 mg/kg of body weight. This was given as a single dose or on Days 1, 5, and 9 in the standard National Institutes of Health 10-day testing.
CY was utilized at an optimum 50 mg/kg of body weight (range 25-75 mg/kg ) preferably given at Day 3 in the 10-day testing. 5-FU was utilized at 75 mg/kg of body weight (range 50-100 mg/kg) at Day 3. HU was used in a high dosage of at least 1000 mg/kg of body weight (range 1000-1500 mg/kg). The 5-FU and the HU were utilized as ternary compositions only with cyclophosphamide and the platinum compound.
Hydroxyurea is utilized in combination therapy at a high dosage of at least 1000 mg/kg of body weight (range 1000-1500 mg/kg).

[8] = first line, optimal dose (mg/kg/inj): NSC-119875 2, NSC-271674 6.25
[9] = second line, optimal dose (mg/kg/inj): NSC-119875 1, NSC-271674 1.56
[10] = first line, optimal dose (mg/kg/inj): NSC-119875 2, NSC-271674 0.78
[11] = second line, optimal dose (mg/kg/inj): NSC-119875 2, NSC-271674 1.56
[12] = first line, optimal dose (mg/kg/inj): NSC-119875 2, NSC-271674 3.12
[13] = second line, optimal dose (mg/kg/inj): NSC-119875 2, NSC-271674 6.25
[14] = first line, optimal dose (mg/kg/inj): NSC-119875 8, NSC-271674 6.25
[15] = second line, optimal dose (mg/kg/inj): NSC-119875 8, NSC-271674 25
[16] = first line, optimal dose (mg/kg/inj): NSC-119875 8, NSC-271674 12.5
[17] = second line, optimal dose (mg/kg/inj): NSC-119875 16, NSC-271674 50

SMILES: N.N.[Cl][Pt][Cl] [NSC-119875, Cis-dichlorodiamino platinum II]
- ID50 L1210 (L1210 cells): 0.05 µg/mL
- ID50 L1210/DDP [1]: 2.50 µg/mL
- % ILS, P388 (P388 leukemia): 145%
- Survival (Days), P388 (P388 leukemia): 32.6 days
- % ILS, P388/DDP (P388/DDP leukemia): 41%
- Survival (Days), P388/DDP (P388/DDP leukemia): 15.5 days
- % T/C (survival time) (B16 melanoma; [8]): 193%
- % T/C (survival time) (B16 melanoma; [9]): 166%
- % T/C (survival time) (L1210; [10]): 151%
- % T/C (survival time) (L1210; [11]): 182%
- % T/C (survival time) (Lewis lung; [12]): 135%
- % T/C (survival time) (Lewis lung; [13]): 177%
- % T/C (tumor weight) (CD8Fl mammary; [14]): 0%
- % T/C (tumor weight) (CD8Fl mammary; [15]): 0%
- % T/C (tumor weight) (Colon #38; [16]): 42%
- % T/C (tumor weight) (Colon #38; [17]): 11%

SMILES: NC1CCCCC1N.O=S(=O)([O-])[O-].[Pt+2] (centres unmarked) [NSC-250427, sulfato(1,2diaminocyclohexane)platinum (II)]
- Body Weight Loss [2]: 2
- Clinical Chemistry - Blood Urea Nitrogen [2]: 1
- Clinical Chemistry - Creatinine [2]: 1
- Clinical Chemistry - Serum Glutamic Pyruvic Transaminase [2]: 5
- Hematology - Hematocrit [2]: 3
- Hematology - White Blood Cell [2]: 3
- Histopathology - Gastrointestinal [2]: 1
- Histopathology - Hematopoietic [2]: 4
- Histopathology - Lymphatic [2]: 2
- Histopathology - Renal [2]: 2
- TOTAL SCORE [2]: 24

SMILES: CC(C)N.CC(C)N.[Cl-].[Cl-].[OH-].[OH-].[Pt] [NSC-256927, bisisopropylamine-cis-dichloro-trans-dihydroxy platinum (IV)]
- Body Weight Loss [2]: 2
- Clinical Chemistry - Blood Urea Nitrogen [2]: 1
- Clinical Chemistry - Creatinine [2]: 1
- Clinical Chemistry - Serum Glutamic Pyruvic Transaminase [2]: 3
- Hematology - Hematocrit [2]: 4
- Hematology - White Blood Cell [2]: 3
- Histopathology - Gastrointestinal [2]: 1
- Histopathology - Hematopoietic [2]: 4
- Histopathology - Lymphatic [2]: 4
- Histopathology - Renal [2]: 2
- TOTAL SCORE [2]: 25

SMILES: N[C@@H]1CCCC[C@H]1N.O=C([O-])c1ccc(C(=O)[O-])c(C(=O)[O-])c1.[H+].[Pt+2] [NSC-271674, 4-Carboxyphthalato(1,2-diaminocyclohexane)platinum(II)]
- % increases in life span (% ILS) (L1210 leukemia [3]; 5 mg/kg ip): 70%
- % increases in life span (% ILS) (L1210 leukemia [3]; 10 mg/kg ip): 118%
- % increases in life span (% ILS) (L1210 leukemia [3]; 20 mg/kg ip): 119%
- % increases in life span (% ILS) (L1210 leukemia [3]; 25 mg/kg ip): 139%
- % increases in life span (% ILS) (L1210 leukemia [3]; 40 mg/kg ip): 232%
- % increases in life span (% ILS) (L1210 leukemia [3]; 50 mg/kg ip): 288%
- % increases in life span (% ILS) (L1210 leukemia [3]; 60 mg/kg ip): 174%
- % ILS (L1210 leukemia [4]; 5 mg/kg alone, Day 3 treatment, three experiments): 51% and 42% and 39%
- >60 day survivors (L1210 leukemia [4]; 5 mg/kg with cyclophosphamide (50 mg/kg) and 5-fluorouracil (75 mg/kg)): 8 of 10
- >60 day survivors (L1210 leukemia [4]; 5 mg/kg with cyclophosphamide (50 mg/kg), two experiments): 3 of 10 and no >60 day survivors
- approximate LD50 (Approximate LD50): ~75 mg/kg
- questionably toxic deaths (L1210 leukemia [5]): 2
- ID50 L1210 (L1210 cells): 0.30 µg/mL
- ID50 L1210/DDP [1]: 0.23 µg/mL
- % ILS, P388 (P388 leukemia): 56%
- Survival (Days), P388 (P388 leukemia): 20.7 days
- % ILS, P388/DDP (P388/DDP leukemia): 201%
- Survival (Days), P388/DDP (P388/DDP leukemia): 33.3 days
- activity against strains of murine leukemia wherein NSC 119875 has exhausted its activity (P388/DDP leukemia; murine leukemia strains): appears to be active
- % T/C (survival time) (B16 melanoma; [8]): 171%
- % T/C (survival time) (B16 melanoma; [9]): 159%
- % T/C (survival time) (L1210; [10]): 174%
- % T/C (survival time) (L1210; [11]): 325%
- % T/C (survival time) (Lewis lung; [12]): 122%
- % T/C (survival time) (Lewis lung; [13]): 127%
- % T/C (tumor weight) (CD8Fl mammary; [14]): 11%
- % T/C (tumor weight) (CD8Fl mammary; [15]): 25%
- % T/C (tumor weight) (Colon #38; [16]): 50%
- % T/C (tumor weight) (Colon #38; [17]): 33%
- testing for renal toxicity ([2]; against NSC 119875): superior results
- Body Weight Loss [2]: 3
- Clinical Chemistry - Blood Urea Nitrogen [2]: 1
- Clinical Chemistry - Creatinine [2]: 1
- Clinical Chemistry - Serum Glutamic Pyruvic Transaminase [2]: 3
- Hematology - Hematocrit [2]: 3
- Hematology - White Blood Cell [2]: 3
- Histopathology - Gastrointestinal [2]: 1
- Histopathology - Hematopoietic [2]: 5
- Histopathology - Lymphatic [2]: 1
- Histopathology - Renal [2]: 2
- TOTAL SCORE [2]: 23
- potentiation in a treatment with cyclophosphamide (murine leukemia L1210; CY 50 mg/kg): is potentiated
- antileukemic activity (murine leukemia L1210; mice, L1210): has shown antileukemic activity
- effective dosages (murine leukemia L1210; mice, L1210): 5-60 mg/kg of body weight

SMILES: N.N.O=C([O-])C1(C(=O)[O-])CCC1.[Pt+2] [NSC-241240, diamine[1,1cyclobutanedicarboxylato (2)-0,0']platinum]
- Body Weight Loss [2]: 1
- Clinical Chemistry - Blood Urea Nitrogen [2]: 1
- Clinical Chemistry - Creatinine [2]: 1
- Clinical Chemistry - Serum Glutamic Pyruvic Transaminase [2]: 3
- Hematology - Hematocrit [2]: 4
- Hematology - White Blood Cell [2]: 3
- Histopathology - Gastrointestinal [2]: 1
- Histopathology - Hematopoietic [2]: 5
- Histopathology - Lymphatic [2]: 1
- Histopathology - Renal [2]: 1
- TOTAL SCORE [2]: 21

SMILES: O=c1[nH]cc(F)c(=O)[nH]1 [5-fluorouracil]
- mean survival times [6]: significantly increased

SMILES: NC(=O)NO [Hydroxyurea, hydroxyurea]
- effectiveness when used alone (L1210 leukemia [7]): only minimally effective
